Results published in patent US8987314B2, “Amide, urea or sulfone amide linked benzothiazole inhibitors of endothelial lipase” (Bristol-Myers Squibb Company, priority 2012, dated 2015).
Like-named read-outs stand apart in the source and are kept apart here.

Key:
Endothelial lipase (EL) = Endothelial lipase (EL) (Homo sapiens (Human), UniProt Q9Y5X9); assay: EL assay: endothelial lipase activity with fluorescent substrate A10070 in DMPG vesicles; type: biochemical
In short: (§1)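 Vesicles prepared: A10070 dried with DMPG, resuspended in HEPES pH 8.0/NaCl/EDTA, sonicated on ice. Enzyme incubated with compound 30 min at 37° C. Reaction started with 1:10 diluted vesicles. Fluorescence (490/530 nm) followed 60 min; slope from 300–900 secs gives rate.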

hepatic lipase (HL) = hepatic lipase (HL) (Homo sapiens (Human), UniProt P11150); assay: HL assay: hepatic lipase activity with fluorescent substrate A10070 in DMPG vesicles; type: biochemical
In short: as §1

[1] = EL from conditioned media of HT-1080 cells, 30 min incubation with compound at 37° C., A10070/DMPG vesicles
[2] = HL partially purified from conditioned media of COS cells, 30 min incubation with compound at 37° C., A10070/DMPG vesicles

Endothelial lipase (EL), sequence (Q9Y5X9 21-500): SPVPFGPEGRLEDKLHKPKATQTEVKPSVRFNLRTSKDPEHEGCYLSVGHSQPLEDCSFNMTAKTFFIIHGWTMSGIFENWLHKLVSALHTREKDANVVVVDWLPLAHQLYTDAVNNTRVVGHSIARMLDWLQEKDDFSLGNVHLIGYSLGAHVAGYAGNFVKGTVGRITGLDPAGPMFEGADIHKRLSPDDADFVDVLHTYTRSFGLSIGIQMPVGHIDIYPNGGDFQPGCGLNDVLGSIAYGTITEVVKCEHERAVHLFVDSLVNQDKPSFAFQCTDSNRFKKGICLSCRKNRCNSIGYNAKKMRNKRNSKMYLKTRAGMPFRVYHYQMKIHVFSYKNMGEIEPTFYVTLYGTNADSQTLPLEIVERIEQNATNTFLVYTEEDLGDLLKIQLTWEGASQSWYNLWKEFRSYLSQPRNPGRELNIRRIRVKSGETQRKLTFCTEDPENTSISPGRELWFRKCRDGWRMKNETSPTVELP
hepatic lipase (HL), sequence (P11150 23-499, species assumed): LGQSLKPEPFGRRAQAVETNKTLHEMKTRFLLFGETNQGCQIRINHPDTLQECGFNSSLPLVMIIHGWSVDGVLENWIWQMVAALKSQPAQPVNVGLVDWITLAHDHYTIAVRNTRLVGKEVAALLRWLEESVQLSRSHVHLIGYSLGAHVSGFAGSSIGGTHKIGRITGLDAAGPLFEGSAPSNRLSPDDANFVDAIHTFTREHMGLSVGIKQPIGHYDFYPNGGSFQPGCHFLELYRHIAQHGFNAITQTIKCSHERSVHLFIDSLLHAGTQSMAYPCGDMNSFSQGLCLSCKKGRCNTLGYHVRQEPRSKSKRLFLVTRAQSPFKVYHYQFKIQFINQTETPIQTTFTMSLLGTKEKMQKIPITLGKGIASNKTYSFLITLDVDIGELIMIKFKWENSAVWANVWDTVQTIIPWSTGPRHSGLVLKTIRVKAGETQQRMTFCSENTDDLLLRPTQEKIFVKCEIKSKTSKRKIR

| IC50 (Endothelial lipase (EL)) | IC50 (hepatic lipase (HL)) | IC50 (Endothelial lipase (EL); [1]) | IC50 (hepatic lipase (HL); [2]) | Structure (SMILES) |
| --- | --- | --- | --- | --- |
| 166 nM | 3670 nM | – | – | CC(C)c1cc(CNC(=O)c2ccc3nc(C(C(=O)NCCS(N)(=O)=O)S(=O)(=O)CCC(F)(F)F)sc3c2)on1 (centres unmarked) [Example B199, N-((3-isopropyl-5-isoxazolyl)methyl)-2-(2-oxo-2-((2-sulfamoylethyl)a-mino)-1-((3,3,3-trifluoropropyl)sulfonyl)eth-yl)-1,3-benzothiazole-6-carboxamide] |
| 26 nM | 10000 nM | – | – | NS(=O)(=O)CCNC(=O)C(c1nc2ccc(C(=O)N3CC(F)(F)C3)cc2s1)S(=O)(=O)CCC(F)(F)F (centres unmarked) [Example B200, 2-(6-((3,3-difluoro-1-azetidinyl)carbonyl)-1,3-benzothiazol-2-yl)-N-(2-sulfamoylethyl)-2-((3,3,3-trifluoropropyl)sulfonyl)a-cetamide] |
| 23 nM | 311 nM | – | – | NS(=O)(=O)CCNC(=O)C(c1nc2ccc(C(=O)N3CCc4ccccc4C3)cc2s1)S(=O)(=O)CCC(F)(F)F (centres unmarked) [Example B201, 2-(6-(3,4-dihydro-2(1H)-isoquinolinylcarbonyl)-1,3-benzothiazol-2-yl)-N-(2-sulfamoylethyl)-2-((3,3,3-trifluoropropyl)sulfonyl)a-cetamide] |
| – | – | 24 nM | 170 nM | COCCNC(=O)c1cccc(-c2ccc3nc(C(C(=O)NCCS(N)(=O)=O)S(=O)(=O)CCC(F)(F)F)sc3c2)c1 (centres unmarked) [Example B202, N-(2-methoxyethyl)-3-(2-(2-oxo-2-((2-sulfamoylethyl)amino)-1-((3,3,3-trifluoropropyl)sulfonyl)ethyl)benzo[d]thiazol-6-yl)benzamide] |
| – | – | 10 nM | 141 nM | Cc1cc2nc(C(C(=O)NCCS(N)(=O)=O)S(C)(=O)=O)sc2cc1-c1cnn(C)c1 (centres unmarked) [Example B203, 2-(5-methyl-6-(1-methyl-1H-pyrazol-4-yl)-1,3-benzothiazol-2-yl)-2-(methylsulfonyl)-N-(2-sulfamoylethyl)acetamide] |
| 23.7 nM | 17.5 nM | – | – | COCCS(=O)(=O)C(C(=O)NCc1nnc(C)o1)c1nc2ccc(-c3ccccc3)cc2s1 (centres unmarked) [Example B204, 2-(2-methoxyethane-sulfonyl)-N-[(5-methyl-1,3,4-oxadiazol-2-yl)methyl]-2-(6-phenyl-1,3-benzothiazol-2-yl)a-cetamide] |
| 205 nM | 101 nM | – | – | COC(=O)CCS(=O)(=O)C(C(=O)NCc1nnc(C)o1)c1nc2ccc(-c3ccccc3)cc2s1 (centres unmarked) [Example B205, methyl 3-({[(5-methyl-1,3,4-oxadiazol-2-yl)meth-yl]carbamoyl}(6-phenyl-1,3-benzothiazol-2-yl)methanesulfonyl)pro-panoate] |
| 1.4 nM | 2.8 nM | – | – | CS(=O)(=O)C(C(=O)NCCS(N)(=O)=O)c1nc2ccc(-c3ccc(Cl)cc3)cc2s1 (centres unmarked) [Example B207, 2-[6-(4-chlorophenyl)-1,3-benzothiazol-2-yl]-2-methanesulfonyl-N-(2-sulfamoylethyl)acetamide] |
| 0.8 nM | 0.8 nM | – | – | CS(=O)(=O)C(C(=O)NCCS(N)(=O)=O)c1nc2ccc(-c3cccc(Cl)c3)cc2s1 (centres unmarked) [Example B208, 2-[6-(3-chlorophenyl)-1,3-benzothiazol-2-yl]-2-methanesulfonyl-N-(2-sulfamoylethyl)acetamide] |
| 8 nM | 13.9 nM | – | – | CS(=O)(=O)C(C(=O)NCCS(N)(=O)=O)c1nc2ccc(-c3cc(F)cc(Cl)c3)cc2s1 (centres unmarked) [Example B209, 2-[6-(3-chloro-5-fluorophenyl)-1,3-benzothiazol-2-yl]-2-methanesulfonyl-N-(2-sulfamoylethyl)acetamide] |
| 1.6 nM | 160 nM | – | – | CS(=O)(=O)C(C(=O)NCCS(N)(=O)=O)c1nc2ccc(-c3ccc(C(N)=O)cc3)cc2s1 (centres unmarked) [Example B214, 4-(2-{methanesulfonyl[(2-sul-famoylethyl)carbamoyl]meth-yl}-1,3-benzothiazol-6-yl)benzamide] |
| 4.4 nM | 3.6 nM | – | – | COCc1cccc(-c2ccc3nc(C(C(=O)NCCS(N)(=O)=O)S(C)(=O)=O)sc3c2)c1 (centres unmarked) [Example B215, 2-methanesulfonyl-2-{6-[3-(methoxymethyl)phen-yl]-1,3-benzothiazol-2-yl}-N-(2-sulfamoylethyl)a-cetamide] |
| 2.1 nM | 155 nM | – | – | CS(=O)(=O)C(C(=O)NCCS(N)(=O)=O)c1nc2ccc(-c3ccc(C(=O)NC4CC4)cc3)cc2s1 (centres unmarked) [Example B216, N-cyclopropyl-4-(2-{methanesulfonyl[(2-sulfa-moylethyl)carbamoyl]meth-yl}-1,3-benzothiazol-6-yl)benzamide] |
| 2.3 nM | 3.6 nM | – | – | CC(C)Oc1ccc(-c2ccc3nc(C(C(=O)NCCS(N)(=O)=O)S(C)(=O)=O)sc3c2)cc1Cl (centres unmarked) [Example B217, 2-{6-[3-chloro-4-(propan-2-yloxy)phenyl]-1,3-benzothiazol-2-yl}-2-methanesulfonyl-N-(2-sulfamoylethyl)acetamide] |
| 51.4 nM | 2.8 nM | – | – | CC(C)(C)OC(=O)n1ccc(-c2ccc3nc(C(C(=O)NCCS(N)(=O)=O)S(C)(=O)=O)sc3c2)c1 (centres unmarked) [Example B220, tert-butyl 3-(2-{methanesulfonyl[(2-sulfa-moylethyl)carbamoyl]meth-yl}-1,3-benzothiazol-6-yl)-1H-pyrrole-1-carboxylatc] |
| 78.1 nM | 308 nM | – | – | CS(=O)(=O)C(C(=O)NCCS(N)(=O)=O)c1nc2ccc(-c3cnn(CCC(F)(F)F)c3)cc2s1 (centres unmarked) [Example B221, 2-methanesulfonyl-N-(2-sulfamoylethyl)-2-{6-[1-(3,3,3-trifluoropropyl)-1H-pyrazol-4-yl]-1,3-benzothiazol-2-yl}acetamide] |
| 12.3 nM | 31.6 nM | – | – | CS(=O)(=O)C(C(=O)NCCS(N)(=O)=O)c1nc2ccc(-c3cncs3)cc2s1 (centres unmarked) [Example B222, 2-methanesulfonyl-N-(2-sulfamoylethyl)-2-[6-(1,3-thiazol-5-yl)-1,3-benzothiazol-2-yl]a-cetamide] |
| 1.2 nM | 7.7 nM | – | – | CS(=O)(=O)C(C(=O)NCCS(N)(=O)=O)c1nc2ccc(-c3ccc(-c4nnc(N)s4)cc3)cc2s1 (centres unmarked) [Example B223, 2-{6-[4-(5-amino-1,3,4-thiadiazol-2-yl)phenyl]-1,3-benzothiazol-2-yl}-2-methanesulfonyl-N-(2-sulfamoylethyl)acetamide] |
| 8.4 nM | 10 nM | – | – | CS(=O)(=O)C(C(=O)NCCS(N)(=O)=O)c1nc2ccc(-c3ccc(-c4ncco4)cc3)cc2s1 (centres unmarked) [Example B224, 2-methanesulfonyl-2-{6-[4-(1,3-oxazol-2-yl)phen-yl]-1,3-benzothiazol-2-yl}-N-(2-sulfamoylethyl)a-cetamide] |
| 4.9 nM | 15.4 nM | – | – | Cc1nnc(-c2ccc(-c3ccc4nc(C(C(=O)NCCS(N)(=O)=O)S(C)(=O)=O)sc4c3)cc2)o1 (centres unmarked) [Example B225, 2-methanesulfonyl-2-{6-[4-(5-methyl-1,3,4-oxadiazol-2-yl)phenyl]-1,3-benzothiazol-2-yl}-N-(2-sulfamoylethyl)a-cetamide] |
| 0.5 nM | 74 nM | – | – | NS(=O)(=O)CCNC(=O)C(c1nc2ccc(-c3ccc(C(=O)NC4CC4)cc3)cc2s1)S(=O)(=O)Cc1ccc(OC(F)(F)F)cc1 (centres unmarked) [Example B226, N-cyclopropyl-4-(2-{[(2-sulfamoylethyl)carbamoyl][4-(trifluoromethoxy)phen-yl]methanesulfonyl-methyl}-1,3-benzothiazol-6-yl)benzamide] |
| 0.5 nM | 80.8 nM | – | – | NC(=O)c1ccc(-c2ccc3nc(C(C(=O)NCCS(N)(=O)=O)S(=O)(=O)Cc4ccc(OC(F)(F)F)cc4)sc3c2)cc1 (centres unmarked) [Example B227, 4-(2-{[(2-sulfamoylethyl)car-bamoyl][4-(trifluoromethoxy)phen-yl]methanesulfonyl-methyl}-1,3-benzothiazol-6-yl)benzamide] |
| 9.2 nM | 250 nM | – | – | NC(=O)c1ccc(-c2ccc3nc(C(C(=O)NCCS(N)(=O)=O)S(=O)(=O)CCC(F)(F)F)sc3c2)cc1 (centres unmarked) [Example B228, 4-(2-{[(2-sulfamoylethyl)car-bamoyl](3,3,3-trifluoro-propanesulfonyl)methyl}-1,3-benzothiazol-6-yl)ben-zamide] |
| 29.2 nM | 242 nM | – | – | CN(C)C(=O)c1ccc(-c2ccc3nc(C(C(=O)NCCS(N)(=O)=O)S(=O)(=O)Cc4ccc(OC(F)(F)F)cc4)sc3c2)cc1F (centres unmarked) [Example B229, 2-fluoro-N,N-dimethyl-4-(2-{[(2-sulfamoylethyl)car-bamoyl][4-(trifluoro-methoxy)phenyl]methane-sulfonylmethyl}-1,3-benzothiazol-6-yl)ben-zamide] |
| 4.6 nM | 37.4 nM | – | – | CN(C)C(=O)c1ccc(-c2ccc3nc(C(C(=O)NCCS(N)(=O)=O)S(=O)(=O)CCC(F)(F)F)sc3c2)cc1F (centres unmarked) [Example B230, 2-fluoro-N,N-dimethyl-4-(2-{[(2-sulfamoylethyl)car-bamoyl](3,3,3-trifluoro-propanesulfonyl)meth-yl}-1,3-benzothiazol-6-yl)benzamide] |
| 45.9 nM | 0.8 nM | – | – | COCCS(=O)(=O)C(C(=O)NCc1cc(C(C)C)no1)c1nc2ccc(-c3ccccc3)cc2s1 (centres unmarked) [Example B232, 2-(2-methoxyethane-sulfonyl)-2-(6-phenyl-1,3-benzothiazol-2-yl)-N-{[3-(propan-2-yl)-1,2-oxazol-5-yl]methyl}acetamide] |
| 31.6 nM | 3.6 nM | – | – | Cc1cc(CNC(=O)C(c2nc3ccc(-c4ccccc4)cc3s2)S(C)(=O)=O)on1 (centres unmarked) [Example B233] |
| 4.9 nM | 0.5 nM | – | – | COCCS(=O)(=O)C(C(=O)NCc1cc(C)no1)c1nc2ccc(-c3ccccc3)cc2s1 (centres unmarked) [Example B234, 2-(2-methoxyethane-sulfonyl)-N-[(3-methyl-1,2-oxazol-5-yl)methyl]-2-(6-phenyl-1,3-benzothiazol-2-yl)a-cetamide] |
